Series [1] can be described thus: Trehalose crystallization inhibitory effect of coexisting saccharides in a trehalose syrup over the water solubility (Experiment 2). It counts as physicochemical. To be noted: trehalose dissolved in an amount over the water solubility; summary of Table 2. The procedure:
Trehalose was dissolved by heating in water in an amount of 1.5-times the water solubility at 10° C., and the trehalose solution was allowed to stand at a relatively-cold place for checking the trehalose crystallization inhibitory effect by saccharides. […] With this relationship, testing solutions were prepared by dissolving by heating in 100 parts by weight of water in a respective glass beaker 83 parts by weight of trehalose, and a saccharide in an amount of 10% to the trehalose, i.e., 8.3 parts by weight of the saccharide selected from the group consisting of glucose, maltose, isomaltose, lactose, maltotriose, panose, maltotetraose, sorbitol, maltitol, maltotriitol, sucrose, raffinose, erlose, saccharides such as α-glucosyltrehalose or monoglucosyltrehalose, α-maltosyltrehalose or diglucosyltrehalose, and α-maltotriosyltrehalose or triglucosyltrehalose as disclosed in Japanese Patent Kokai No.143,876/95 by the present applicant; a saccharide such as α-isomaltosyl-α-glucoside or monoglucosyltrehalose as disclosed in Japanese Patent Kokai No.217,784/96 by the same applicant; and a saccharide such as α-maltosyl-α-maltoside or diglucosyltrehalose as disclosed in Japanese Patent Application No.167,486/94 by the same applicant. Each solution was allowed to stand in a thermostatic place kept at 5, 10 or 15° C. for one week, followed by macroscopically observing the presence of trehalose crystal for evaluating the trehalose crystallization inhibitory effect by the saccharides.

Series [2] in a line: Influence of the concentrations of trehalose and of mono-/diglucosyltrehalose on trehalose crystallization (Experiment 3). In kind it is physicochemical. Details: key to Formation of trehalose crystal: "+" means that it crystallized; "-" means that it did not. The procedure:
The trehalose crystallization inhibitory effect was experimented by dissolving trehalose under heating conditions in water in an amount of 1.5, 2.0, 2.5, 2.8 or 3.3-times the water solubility at 10° C., dissolving in the solution other oligosaccharides having a trehalose structure within their molecules in an amount of 10, 30 or 60% to the trehalose, d.s.b, and allowing the resultant solution to stand at a relatively-low temperature.
Based on the results in Experiment 1, 1.5, 2.0, 2.5, 2.8 and 3.3-times the water solubility of trehalose in 100 parts by weight of water at 10° C. water corresponded to 83, 111, 138, 155 and 182 parts by weight of trehalose anhydride, d.s.b., respectively With this relationship, testing solutions with the composition as shown in Table 3 were prepared by dissolving under heating conditions in a respective glass beaker 100 parts by weight of water, trehalose in a prescribed part by weight, and either monoglucosyltrehalose, i.e., α-glucosyltrehalose or diglucosyltrehalose, i.e., α-maltosyltrehalose in a prescribed ratio, allowing the solution to stand in a thermostatic place kept at 5, 10 or 15° C. for checking the trehalose crystallization inhibitory effect.

SMILES strings stand for the structures. “Also recorded” adds a separate entry of the source.

With `OC[C@H]1O[C@H](O[C@H]2O[C@H](CO)[C@@H](O[C@H]3O[C@H](CO)[C@@H](O)[C@H](O)[C@H]3O)[C@H](O)[C@H]2O)[C@H](O)[C@@H](O)[C@@H]1O` [α-Glycosyltrehalose, α-glucosyltrehalose], the “Trehalose crystallization inhibitory effect (in words)” value in series [1] was “specifically and effectively inhibited”; in series [2] (summary of Table 3) it was “satisfactory trehalose crystallization inhibitory effect”. Besides, the “Formation of trehalose crystal” value in series [2] (water 100, trehalose 83, coexisting saccharide 8.3 parts by weight, 5° C. (1.7-times solubility)) is “-”; in series [2] (water 100, trehalose 83, coexisting saccharide 8.3 parts by weight, 10° C. (1.5-times solubility)), “-”; in series [2] (water 100, trehalose 83, coexisting saccharide 8.3 parts by weight, 15° C. (1.3-times solubility)) it was “-”; in series [2] (water 100, trehalose 83, coexisting saccharide 25 parts by weight, 5° C. (1.7-times solubility)), “-”; in series [2] (water 100, trehalose 83, coexisting saccharide 25 parts by weight, 10° C. (1.5-times solubility)), “-”; in series [2] (water 100, trehalose 83, coexisting saccharide 25 parts by weight, 15° C. (1.3-times solubility)), “-”. Also, the “Formation of trehalose crystal” value in series [2] (water 100, trehalose 83, coexisting saccharide 50 parts by weight, 5° C. (1.7-times solubility)) is listed as “-”; in series [2] (water 100, trehalose 83, coexisting saccharide 50 parts by weight, 10° C. (1.5-times solubility)), “-”; in series [2] (water 100, trehalose 83, coexisting saccharide 50 parts by weight, 15° C. (1.3-times solubility)), “-”; in series [2] (water 100, trehalose 111, coexisting saccharide 11 parts by weight, 5° C. (2.2-times solubility)), “+”; in series [2] (water 100, trehalose 111, coexisting saccharide 11 parts by weight, 10° C. (2.0-times solubility)) it was “-”; in series [2] (water 100, trehalose 111, coexisting saccharide 11 parts by weight, 15° C. (1.8-times solubility)), “-”. The “Formation of trehalose crystal” value in series [2] (water 100, trehalose 111, coexisting saccharide 33 parts by weight, 5° C. (2.2-times solubility)) is reported as “-”; in series [2] (water 100, trehalose 111, coexisting saccharide 33 parts by weight, 10° C. (2.0-times solubility)), “-”; in series [2] (water 100, trehalose 111, coexisting saccharide 33 parts by weight, 15° C. (1.8-times solubility)), “-”; in series [2] (water 100, trehalose 111, coexisting saccharide 66 parts by weight, 5° C. (2.2-times solubility)), “-”; in series [2] (water 100, trehalose 111, coexisting saccharide 66 parts by weight, 10° C. (2.0-times solubility)), “-”; in series [2] (water 100, trehalose 111, coexisting saccharide 66 parts by weight, 15° C. (1.8-times solubility)), “-”. Further, the “Formation of trehalose crystal” value in series [2] (water 100, trehalose 138, coexisting saccharide 14 parts by weight, 5° C. (2.8-times solubility)) is “+”; in series [2] (water 100, trehalose 138, coexisting saccharide 14 parts by weight, 10° C. (2.5-times solubility)) it was “+”; in series [2] (water 100, trehalose 138, coexisting saccharide 14 parts by weight, 15° C. (2.2-times solubility)), “-”; in series [2] (water 100, trehalose 138, coexisting saccharide 42 parts by weight, 5° C. (2.8-times solubility)) it was “+”; in series [2] (water 100, trehalose 138, coexisting saccharide 42 parts by weight, 10° C. (2.5-times solubility)), “+”; in series [2] (water 100, trehalose 138, coexisting saccharide 42 parts by weight, 15° C. (2.2-times solubility)), “-”. Also, the “Formation of trehalose crystal” value in series [2] (water 100, trehalose 138, coexisting saccharide 83 parts by weight, 5° C. (2.8-times solubility)) is on record as “+”; in series [2] (water 100, trehalose 138, coexisting saccharide 83 parts by weight, 10° C. (2.5-times solubility)) it was “+”; in series [2] (water 100, trehalose 138, coexisting saccharide 83 parts by weight, 15° C. (2.2-times solubility)), “-”; in series [2] (water 100, trehalose 155, coexisting saccharide 16 parts by weight, 5° C. (3.1-times solubility)), “+”; in series [2] (water 100, trehalose 155, coexisting saccharide 16 parts by weight, 10° C. (2.8-times solubility)), “+”; in series [2] (water 100, trehalose 155, coexisting saccharide 16 parts by weight, 15° C. (2.5-times solubility)), “+”. The “Formation of trehalose crystal” value in series [2] (water 100, trehalose 155, coexisting saccharide 46 parts by weight, 5° C. (3.1-times solubility)) is on record as “+”; in series [2] (water 100, trehalose 155, coexisting saccharide 46 parts by weight, 10° C. (2.8-times solubility)) it was “+”; in series [2] (water 100, trehalose 155, coexisting saccharide 46 parts by weight, 15° C. (2.5-times solubility)), “+”; in series [2] (water 100, trehalose 155, coexisting saccharide 93 parts by weight, 5° C. (3.1-times solubility)), “+”; in series [2] (water 100, trehalose 155, coexisting saccharide 93 parts by weight, 10° C. (2.8-times solubility)), “+”; in series [2] (water 100, trehalose 155, coexisting saccharide 93 parts by weight, 15° C. (2.5-times solubility)) it was “+”. Further, the “Formation of trehalose crystal” value in series [2] (water 100, trehalose 182, coexisting saccharide 18 parts by weight, 5° C. (3.7-times solubility)) is given as “+”; in series [2] (water 100, trehalose 182, coexisting saccharide 18 parts by weight, 10° C. (3.3-times solubility)), “+”; in series [2] (water 100, trehalose 182, coexisting saccharide 18 parts by weight, 15° C. (3.0-times solubility)), “+”; in series [2] (water 100, trehalose 182, coexisting saccharide 55 parts by weight, 5° C. (3.7-times solubility)) it was “+”; in series [2] (water 100, trehalose 182, coexisting saccharide 55 parts by weight, 10° C. (3.3-times solubility)) it was “+”; in series [2] (water 100, trehalose 182, coexisting saccharide 55 parts by weight, 15° C. (3.0-times solubility)), “+”. Further, the “Formation of trehalose crystal” value in series [2] (water 100, trehalose 182, coexisting saccharide 110 parts by weight, 5° C. (3.7-times solubility)) is on record as “+”; in series [2] (water 100, trehalose 182, coexisting saccharide 110 parts by weight, 10° C. (3.3-times solubility)) it was “+”; in series [2] (water 100, trehalose 182, coexisting saccharide 110 parts by weight, 15° C. (3.0-times solubility)), “+”.

Turning to `OC[C@H]1O[C@H](OC[C@H]2O[C@H](O[C@H]3O[C@H](CO)[C@@H](O)[C@H](O)[C@H]3O)[C@H](O)[C@@H](O)[C@@H]2O)[C@H](O)[C@@H](O)[C@@H]1O` [α-Isomaltosyl-α-glucoside, α-isomaltosyl-α-glucoside], the “Trehalose crystallization inhibitory effect (in words)” value in series [1] was “specifically and effectively inhibited”.

`OC[C@H]1O[C@H](O[C@H]2[C@H](O)[C@@H](O)[C@@H](O[C@H]3O[C@H](CO)[C@@H](O[C@H]4O[C@H](CO)[C@@H](O)[C@H](O)[C@H]4O)[C@H](O)[C@H]3O)O[C@@H]2CO)[C@H](O)[C@@H](O)[C@@H]1O` [α-Maltosyl-α-maltoside, α-maltosyl-α-maltoside]: the “Trehalose crystallization inhibitory effect (in words)” value in series [1] was “specifically and effectively inhibited”.

`OC[C@H]1O[C@H](O[C@H]2O[C@H](CO)[C@@H](O[C@H]3O[C@H](CO)[C@@H](O[C@H]4O[C@H](CO)[C@@H](O[C@H]5O[C@H](CO)[C@@H](O)[C@H](O)[C@H]5O)[C@H](O)[C@H]4O)[C@H](O)[C@H]3O)[C@H](O)[C@H]2O)[C@H](O)[C@@H](O)[C@@H]1O` [α-Maltotriosyltrehalose, α-maltotriosyltrehalose]: in series [1], the “Trehalose crystallization inhibitory effect (in words)” value is “specifically and effectively inhibited; also recorded: relatively-low trehalose crystallization inhibitory effect”.

The record behind these values is US5916881A, “High trehalose content syrup” (Kabushiki Kaisha Hayashibara Seibutsu Kagaku Kenkyujo, priority 1996, dated 1999).
